≈ marks a conversion by molar mass, not a printed value. Entries after “also recorded” stand apart in the source; their conditions may differ.
Legend:
[1] = test system: Plasmodium falciparum (D6 clone); test: In vitro antimalarial assay; type: cell-based; conditions: for IC50: Plasmodium falciparum, D6, 72 h, read-out: P. falciparum (D6 clone) IC50
[2] = test system: Cryptococcus neoformans ATCC 90113; test: In vitro antimicrobial assay, C. neoformans; type: cell-based; conditions: ATCC90113, read-out: C. neoformans IC50
[3] = test system: M. tuberculosis (H37Rv); test: In vitro activity against M. tuberculosis; type: cell-based; conditions: Mycobacterium tuberculosis, read-out: M. tuberculosis (H37Rv) MIC
[4] = test system: Mycobacterium tuberculosis; conditions: cited from earlier work
[5] = test system: Staphylococcus aureus; conditions: cited from earlier work
[6] = Stability in aqueous solution; type: physicochemical; conditions: over twenty-four months, exposure to light, room temperature, 0.05 N HCl aqueous solution (20 mg/mL)
[7] = test system: CDK-5; conditions: panel of CDK-1, PKA, CDK-5, MAPK, GSK-3α; cited from earlier work
[8] = test system: Candida albicans ATCC 90028; test: In vitro antimicrobial assay, C. albicans; type: cell-based; conditions: ATCC90028, read-out: C. albicans IC50
[9] = test system: GSK-3β; conditions: panel of CDK-1, PKA, CDK-5, MAPK, GSK-3α; cited from earlier work
[10] = test system: mice infected with malarial parasites; test: In vivo antimalarial assay, intraperitoneal administration; conditions: for toxicity / adverse reactions: i.p. 10×3 mg/kg in infected mice; for Cure (number of mice without parasitemia through day 28 post infection): of 5 mice
[11] = test system: malarial parasites in mice; conditions: oral administration 2×100 μmol/Kg; cited from earlier work
[12] = test system: Plasmodium berghei infected mice; test: In vivo antimalarial assay, oral single dose
[13] = test system: methicillin-resistant Staphylococcus aureus; conditions: cited from earlier work
[14] = test system: Mycobacterium intracellulare ATCC 23068; test: In vitro antimicrobial assay, M. intracellulare; type: cell-based; conditions: ATCC23068, read-out: M. intracellulare IC50
[15] = test system: Plasmodium falciparum (W2 clone); test: In vitro antimalarial assay; type: cell-based; conditions: W2, 72 h, read-out: P. falciparum (W2 clone) IC50
[16] = test system: rat neonatal microglia; test: Microglia LDH release; type: cell-based; conditions: for cytotoxicity (lactate dehydrogenase release) at highest concentration tested: 10 μM; for LDH LDH50: concentration causing 50% of maximal LDH release triggered by 0.1% Triton X-100
[17] = in vitro; conditions: dog, MDCK-MDR1, pH 7.4
[18] = test system: mice inoculated with P. berghei; test: Initial in vivo evaluation; conditions: 3×10 mg/kg P.O.
[19] = test system: Plasmodium berghei infected mice; test: In vivo antimalarial assay, multiple oral dose; conditions: 3×5 mg/Kg
[20] = test system: Vero cells; conditions: African green monkey
[21] = i.p. 10×3 mg/kg, mean parasitemia in control group as 100%

O[C@]12C=C(c3nccc4c3[nH]c3ccccc34)[C@@H]3CCN(CCCCCCCC1)C[C@@]31C[C@@H]3CCCCCCN3[C@H]12 [Compound 3, 15,16,32,33-tetrahydromanzamine A]
IC50 [1]: 0.082 µg/mL (≈ 0.148 µM)

C[C@@H]1[C@H](O)[C@@H](C)/C=C/C=C/C=C/C=C/C=C/C=C/C=C/[C@H](O[C@@H]2O[C@H](C)[C@@H](O)[C@H](N)[C@@H]2O)C[C@@H]2O[C@](O)(C[C@@H](O)C[C@@H](O)[C@H](O)CC[C@@H](O)C[C@@H](O)CC(=O)O[C@H]1C)C[C@H](O)[C@H]2C(=O)O [Amphotericin B, reference compound]
IC50 [2]: 0.75 µg/mL (≈ 0.812 µM)

Oc1cccc2c1[nH]c1c(C3=C[C@@]4(O)CC/C=C\CCCCN5CC[C@@H]3[C@]3(C[C@@H]6CC[C@H](O)CCCN6[C@H]34)C5)nccc12 [Compound 16, 31β-Hydroxymanzamine F]
P. falciparum (D6 clone) IC50 ([1]; chloroquine sensitive D6 clone, 72 h): did not improve the antimalarial activity

O[C@]12C=C(c3nccc4c3[nH]c3ccccc34)[C@@H]3CCN(CCCC/C=C\CC1)C[C@@]31C[C@@H]3/C=C\CCCCN3[C@H]12 [Compound 1, manzamine A]
MIC [3]: 1.5 µg/mL (≈ 2.73 µM)
inhibition of Mycobacterium tuberculosis [4]: 98-99%
IC50 against Staphylococcus aureus [5]: 0.5 µg/mL (≈ 0.911 µM)
stability (decomposition) in aqueous solution [6]: No significant decomposition
inhibition of CDK-5 [7]: specifically inhibited
IC50 [2]: 1.5 µg/mL (≈ 2.73 µM)
IC50 [8]: 2 µg/mL (≈ 3.64 µM)
inhibition of GSK-3β [9]: specifically inhibited
Survival (number of animal survived day 28/total animal in group) ([10]; i.p. 10×3 mg/kg): 0/5
toxicity / adverse reactions [10]: toxic
%parasitemia suppression Day 5 [10, 21]: 100%
Cure (number of mice without parasitemia through day 28 post infection) ([10]; i.p. 10×3 mg/kg): 0/5
reduction in parasitemia [11]: 90%
behavioral signs of toxicity ([12]; single oral dose 100 mg/kg): did not show any behavioral signs of toxicity
signs of toxicity ([12]; single oral dose 200 or 300 mg/kg): began to exhibit signs of toxicity beyond weight loss
IC50 against methicillin-resistant Staphylococcus aureus [13]: 0.7 µg/mL (≈ 1.28 µM)
IC50 [14]: 0.35 µg/mL (≈ 0.638 µM)
IC50 [1]: 0.0045 µg/mL (≈ 0.0082 µM)
IC50 [15]: 0.008 µg/mL (≈ 0.0146 µM)
cytotoxicity (lactate dehydrogenase release) at highest concentration tested [16]: minimal cytotoxicity
LDH LDH50 [16]: >10 µM
efflux ratio at 2 h, 50 μM [17]: < 1

CCN(CC)CCCC(C)Nc1ccnc2cc(Cl)ccc12 (centres unmarked) [Chloroquine]
mean survival time [18]: 14.3 days
MST Days [19]: > 30 days
Inhibition of Parasitemia (%) ([19]; day 5 post infection vs untreated controls): 88%
Average % Parasitemia ([19]; day 7 post infection): 4.5%
Average % Parasitemia ([19]; day 10 post infection): 7.8%
Average % Parasitemia ([19]; day 14 post infection): 13.5%
Average % Parasitemia ([19]; day 21 post infection): 21.7%
Average % Parasitemia ([19]; day 28 post infection): 39.3%
IC50 [1]: 0.016 µg/mL (≈ 0.05 µM)
IC50 [15]: 0.155 µg/mL (≈ 0.485 µM)

COC(=O)c1cc2c([nH]c3ccccc32)c(C2=C[C@@]3(O)CC/C=C\CCCCN4CC[C@@H]2[C@]2(C[C@@H]5/C=C\CCCCN5[C@H]23)C4)n1 [Compound 21b, Methyl manzamine A-3-carboxylate]
cytotoxicity (lactate dehydrogenase release) at highest concentration tested [16]: minimal cytotoxicity; also recorded: no toxicity
LDH LDH50 [16]: >10 µM

CC(C)CCn1c2ccccc2c2ccnc(C3=C[C@@]4(O)CC/C=C\CCCCN5CC[C@@H]3[C@]3(C[C@@H]6/C=C\CCCCN6[C@H]34)C5)c21 [Compound 6f, 9N-isopentylmanzamine A]
LDH LDH50 [16]: >10 µM

CC[C@@]1(O)CCCN2[C@@H](CC1)C[C@]13CN4CCCC/C=C\CC[C@](O)(C=C(c5nccc6c5[nH]c5c(O)cccc56)[C@@H]1CC4)[C@H]23 [Compound 18, 31-Ethylmanzamine F]
no toxicity against Vero cells at the highest tested concentration [20]: > 4.6 µg/mL
IC50 [15]: 0.086 µg/mL (≈ 0.141 µM)

N/N=C1/CCCN2[C@@H](CC1)C[C@]13CN4CCCC/C=C\CC[C@](O)(C=C(c5nccc6c5[nH]c5c(O)cccc56)[C@@H]1CC4)[C@H]23 [Compound 15, Manzamine F-31-hydrazone]
no toxicity against Vero cells at the highest tested concentration [20]: > 4.6 µg/mL
IC50 [1]: 0.029 µg/mL (≈ 0.0488 µM)

CC(C)(C)Cn1c2ccccc2c2ccnc(C3=C[C@@]4(O)CC/C=C\CCCCN5CC[C@@H]3[C@]3(C[C@@H]6/C=C\CCCCN6[C@H]34)C5)c21 [Compound 6g, 9N-neopentylmanzamine A]
cytotoxicity (lactate dehydrogenase release) at highest concentration tested [16]: minimal cytotoxicity; also recorded: no toxicity
LDH LDH50 [16]: >10 µM

C[C@@H]1CC[C@H]2[C@@H](C)C(=O)O[C@@H]3O[C@@]4(C)CC[C@@H]1[C@]32OO4 [Artemisinin, reference compound]
IC50 [15]: 0.008 µg/mL (≈ 0.0283 µM)

CCCCn1c2ccccc2c2ccnc(C3=C[C@@]4(O)CC/C=C\CCCCN5CC[C@@H]3[C@]3(C[C@@H]6/C=C\CCCCN6[C@H]34)C5)c21 [Compound 6d, 9N-butylmanzamine A]
cytotoxicity (lactate dehydrogenase release) at highest concentration tested [16]: minimal cytotoxicity; also recorded: no toxicity
LDH LDH50 [16]: >10 µM

COc1ccc2[nH]c3c(C4=C[C@@]5(O)CC/C=C\CCCCN6CC[C@@H]4[C@]4(C[C@@H]7/C=C\CCCCN7[C@H]45)C6)nccc3c2c1 [Compound 21a, 6-Methoxymanzamine A]
cytotoxicity (lactate dehydrogenase release) at highest concentration tested [16]: minimal cytotoxicity; also recorded: no toxicity
LDH LDH50 [16]: >10 µM

CC(=O)Oc1cccc2c1[nH]c1c(C3=C[C@@]4(O)CC/C=C\CCCCN5CC[C@@H]3[C@]3(C[C@@H]6/C=C\CCCCN6[C@H]34)C5)nccc12 [Compound 9, 8-Acetoxymanzamine A]
IC50 [2]: 1.5 µg/mL (≈ 2.47 µM)
IC50 [8]: 1.5 µg/mL (≈ 2.47 µM)
IC50 [14]: 0.1 µg/mL (≈ 0.165 µM)

Oc1cccc2c1[nH]c1c(C3=C[C@@]4(O)CC/C=C\CCCCN5CC[C@@H]3[C@]3(CC6/C=C\CCCCN6[C@H]34)C5)nccc12 (some centres unmarked) [Compound 2, 8-hydroxymanzamine A]
inhibition of Mycobacterium tuberculosis [4]: 98-99%
IC50 [2]: 2 µg/mL (≈ 3.54 µM)
IC50 [8]: 3.5 µg/mL (≈ 6.2 µM)
Survival (number of animal survived day 28/total animal in group) ([10]; i.p. 10×3 mg/kg): 5/5
toxicity / adverse reactions [10]: mild reversible weight loss
MST (mean survival time) ([10]; i.p. 10×3 mg/kg, * death related to toxicity): > 28 days
%parasitemia suppression Day 5 [10, 21]: 100%
%parasitemia suppression Day 7 [10, 21]: 100%
Cure (number of mice without parasitemia through day 28 post infection) ([10]; i.p. 10×3 mg/kg): 4/5
reduction in parasitemia [11]: 90%
IC50 [14]: 0.1 µg/mL (≈ 0.177 µM)
IC50 [1]: 0.006 µg/mL (≈ 0.0106 µM)
IC50 [15]: 0.008 µg/mL (≈ 0.0142 µM)

O[C@]12C=C(c3nccc4c3[nH]c3ccccc34)[C@@H]3CCN(CCCC/C=C\CC1)C[C@@]31C[C@@H]3CCCCCCN3[C@H]12 [Compound 5, Dihydromanzamine A]
IC50 [1]: 0.2 µg/mL (≈ 0.363 µM)

O=C1CCCN2[C@@H](CC1)C[C@]13CN4CCCC/C=C\CC[C@](O)(C=C(c5nccc6c5[nH]c5c(O)cccc56)C1CC4)[C@H]23 (some centres unmarked) [Compound 14, manzamine F]
IC50 [2]: 6.5 µg/mL (≈ 11.2 µM)
IC50 [1]: 0.78 µg/mL (≈ 1.34 µM)

[O-][N+]12CCCC/C=C\CC[C@]3(O)C=C(c4nccc5c4[nH]c4ccccc45)[C@H](CC1)[C@]1(C[C@@H]4/C=C\CCCC[N@+]4([O-])[C@H]13)C2 [Compound 13, 21, 27-N-oxamanzamine A]
IC50 [1]: 0.017 µg/mL (≈ 0.0293 µM)
IC50 [15]: 0.067 µg/mL (≈ 0.115 µM)

O=C(O)c1cn(C2CC2)c2cc(N3CCNCC3)c(F)cc2c1=O [Ciprofloxacin, reference compound]
IC50 [14]: 0.3 µg/mL (≈ 0.905 µM)
